# Tests used:
# M2 (h) = biological target: T1, M2 (h) (Homo sapiens, UniProt P08172); assay: CEREP binding panel; settings: antagonist radioligand, read-out: % Inhibition of Control Specific Binding
# T1 construct: purchased Millipore KinaseProfiler (kinases); Cerep (receptors and ion channels)
# ULK3 = biological target: T2, ULK3 (Homo sapiens, UniProt Q6PHR2); assay: Millipore kinase panel; format: biochemical; settings: read-out: % Control
# T2 construct: purchased Millipore KinaseProfiler (kinases); Cerep (receptors and ion channels)
# SAPK4 = biological target: T3, SAPK4 (Homo sapiens, UniProt O15264); assay: Millipore kinase panel; format: biochemical; settings: read-out: % Control
# T3 construct: purchased Millipore KinaseProfiler (kinases); Cerep (receptors and ion channels)
# FYN = biological target: T4, FYN (Homo sapiens, UniProt P06241); assay: Millipore kinase panel; format: biochemical; settings: read-out: % Control
# T4 construct: purchased Millipore KinaseProfiler (kinases); Cerep (receptors and ion channels)
# CRAF = biological target: T5, CRAF (Homo sapiens, UniProt P04049); assay: Millipore kinase panel; format: biochemical; settings: read-out: % Control
# T5 construct: purchased Millipore KinaseProfiler (kinases); Cerep (receptors and ion channels)
# SKCa channel = assay: CEREP binding panel; settings: 10 μM, antagonist radioligand
# PAK4 = biological target: T6, PAK4 (Homo sapiens, UniProt O96013); assay: Millipore kinase panel; format: biochemical; settings: read-out: % Control
# T6 construct: purchased Millipore KinaseProfiler (kinases); Cerep (receptors and ion channels)
# RSK1 = biological target: T7, RSK1 (Homo sapiens, UniProt Q15418); assay: Millipore kinase panel; format: biochemical; settings: read-out: % Control
# T7 construct: purchased Millipore KinaseProfiler (kinases); Cerep (receptors and ion channels)
# MELK = biological target: T8, MELK (Homo sapiens, UniProt Q14680); assay: Millipore kinase panel; format: biochemical; settings: read-out: % Control
# T8 construct: purchased Millipore KinaseProfiler (kinases); Cerep (receptors and ion channels)
# MSSK1 = biological target: T9, MSSK1 (Homo sapiens, UniProt Q9UPE1); assay: Millipore kinase panel; format: biochemical; settings: read-out: % Control
# T9 construct: purchased Millipore KinaseProfiler (kinases); Cerep (receptors and ion channels)
# DYRK2 = biological target: T10, DYRK2 (Homo sapiens, UniProt Q92630); assay: Millipore kinase panel; format: biochemical; settings: read-out: % Control
# T10 construct: purchased Millipore KinaseProfiler (kinases); Cerep (receptors and ion channels)
# M3 (h) = biological target: T11, M3 (h) (Homo sapiens, UniProt P20309); assay: CEREP binding panel; settings: antagonist radioligand, read-out: % Inhibition of Control Specific Binding
# T11 construct: purchased Millipore KinaseProfiler (kinases); Cerep (receptors and ion channels)
# CHK1 = biological target: T12, CHK1 (Homo sapiens, UniProt O14757); assay: Millipore kinase panel; format: biochemical; settings: read-out: % Control
# T12 construct: purchased Millipore KinaseProfiler (kinases); Cerep (receptors and ion channels)
# α1 (non-selective) = assay: CEREP binding panel; settings: 10 μM, antagonist radioligand
# EPHA2 = biological target: T13, EPHA2 (Homo sapiens, UniProt P29317); assay: Millipore kinase panel; format: biochemical; settings: read-out: % Control
# T13 construct: purchased Millipore KinaseProfiler (kinases); Cerep (receptors and ion channels)
# JAK3 = biological target: T14, JAK3 (Homo sapiens, UniProt P52333); assay: Millipore kinase panel; format: biochemical; settings: read-out: % Control
# T14 construct: purchased Millipore KinaseProfiler (kinases); Cerep (receptors and ion channels)
# SIK = biological target: T15, SIK (Homo sapiens, UniProt P57059); assay: Millipore kinase panel; format: biochemical; settings: read-out: % Control
# T15 construct: purchased Millipore KinaseProfiler (kinases); Cerep (receptors and ion channels)
# EPHA5 = biological target: T16, EPHA5 (Homo sapiens, UniProt P54756); assay: Millipore kinase panel; format: biochemical; settings: read-out: % Control
# T16 construct: purchased Millipore KinaseProfiler (kinases); Cerep (receptors and ion channels)
# B2 (h) = biological target: T17, B2 (h) (Homo sapiens, UniProt P30411); assay: CEREP binding panel; settings: agonist radioligand, read-out: % Inhibition of Control Specific Binding
# T17 construct: purchased Millipore KinaseProfiler (kinases); Cerep (receptors and ion channels)
# CSK = biological target: T18, CSK (Homo sapiens, UniProt P41240); assay: Millipore kinase panel; format: biochemical; settings: read-out: % Control
# T18 construct: purchased Millipore KinaseProfiler (kinases); Cerep (receptors and ion channels)
# CDK9/CYCLINT1 = biological target: T19, CDK9/CYCLINT1 (Homo sapiens, UniProt P50750); assay: Millipore kinase panel; format: biochemical; settings: read-out: % Control
# T19 construct: purchased Millipore KinaseProfiler (kinases); Cerep (receptors and ion channels)
# BLK = assay: Millipore kinase panel; format: biochemical; settings: 1 μM, ATP at Km
# ETA (h) = biological target: T20, ETA (h) (Homo sapiens, UniProt P25101); assay: CEREP binding panel; settings: agonist radioligand, read-out: % Inhibition of Control Specific Binding
# T20 construct: purchased Millipore KinaseProfiler (kinases); Cerep (receptors and ion channels)
# MRCKBETA = biological target: T21, MRCKBETA (Homo sapiens, UniProt Q9Y5S2); assay: Millipore kinase panel; format: biochemical; settings: read-out: % Control
# T21 construct: purchased Millipore KinaseProfiler (kinases); Cerep (receptors and ion channels)
# Na+ channel (site 2) = assay: CEREP binding panel; settings: 10 μM, antagonist radioligand
# SRPK1 = biological target: T22, SRPK1 (Homo sapiens, UniProt Q96SB4); assay: Millipore kinase panel; format: biochemical; settings: read-out: % Control
# T22 construct: purchased Millipore KinaseProfiler (kinases); Cerep (receptors and ion channels)
# MC4 (h) = biological target: T23, MC4 (h) (Homo sapiens, UniProt P32245); assay: CEREP binding panel; settings: agonist radioligand, read-out: % Inhibition of Control Specific Binding
# T23 construct: purchased Millipore KinaseProfiler (kinases); Cerep (receptors and ion channels)
# ZIPK = biological target: T24, ZIPK (Homo sapiens, UniProt O43293); assay: Millipore kinase panel; format: biochemical; settings: read-out: % Control
# T24 construct: purchased Millipore KinaseProfiler (kinases); Cerep (receptors and ion channels)
# CLK3 = biological target: T25, CLK3 (Homo sapiens, UniProt P49761); assay: Millipore kinase panel; format: biochemical; settings: read-out: % Control
# T25 construct: purchased Millipore KinaseProfiler (kinases); Cerep (receptors and ion channels)
# MAPKAP-K3 = biological target: T26, MAPKAP-K3 (Homo sapiens, UniProt Q16644); assay: Millipore kinase panel; format: biochemical; settings: read-out: % Control
# T26 construct: purchased Millipore KinaseProfiler (kinases); Cerep (receptors and ion channels)
# NK3 (h) = biological target: T27, NK3 (h) (Homo sapiens, UniProt P29371); assay: CEREP binding panel; settings: antagonist radioligand, read-out: % Inhibition of Control Specific Binding
# T27 construct: purchased Millipore KinaseProfiler (kinases); Cerep (receptors and ion channels)
# PKCALPHA = biological target: T28, PKCALPHA (Homo sapiens, UniProt P17252); assay: Millipore kinase panel; format: biochemical; settings: read-out: % Control
# T28 construct: purchased Millipore KinaseProfiler (kinases); Cerep (receptors and ion channels)
# EPHB3 = biological target: T29, EPHB3 (Homo sapiens, UniProt P54753); assay: Millipore kinase panel; format: biochemical; settings: read-out: % Control
# T29 construct: purchased Millipore KinaseProfiler (kinases); Cerep (receptors and ion channels)
# PRK2 = biological target: T30, PRK2 (Homo sapiens, UniProt Q16513); assay: Millipore kinase panel; format: biochemical; settings: read-out: % Control
# T30 construct: purchased Millipore KinaseProfiler (kinases); Cerep (receptors and ion channels)
# PASK = biological target: T31, PASK (Homo sapiens, UniProt Q96RG2); assay: Millipore kinase panel; format: biochemical; settings: read-out: % Control
# T31 construct: purchased Millipore KinaseProfiler (kinases); Cerep (receptors and ion channels)
# RET = biological target: T32, RET (Homo sapiens, UniProt P07949); assay: Millipore kinase panel; format: biochemical; settings: read-out: % Control
# T32 construct: purchased Millipore KinaseProfiler (kinases); Cerep (receptors and ion channels)
# NEK3 = biological target: T33, NEK3 (Homo sapiens, UniProt P51956); assay: Millipore kinase panel; format: biochemical; settings: read-out: % Control
# T33 construct: purchased Millipore KinaseProfiler (kinases); Cerep (receptors and ion channels)
# LIMK1 = biological target: T34, LIMK1 (Homo sapiens, UniProt P53667); assay: Millipore kinase panel; format: biochemical; settings: read-out: % Control
# T34 construct: purchased Millipore KinaseProfiler (kinases); Cerep (receptors and ion channels)
# DAPK1 = biological target: T35, DAPK1 (Homo sapiens, UniProt P53355); assay: Millipore kinase panel; format: biochemical; settings: read-out: % Control
# T35 construct: purchased Millipore KinaseProfiler (kinases); Cerep (receptors and ion channels)
# ARK5 = biological target: T36, ARK5 (Homo sapiens, UniProt O60285); assay: Millipore kinase panel; format: biochemical; settings: read-out: % Control
# T36 construct: purchased Millipore KinaseProfiler (kinases); Cerep (receptors and ion channels)
# DCAMKL2 = biological target: T37, DCAMKL2 (Homo sapiens, UniProt Q8N568); assay: Millipore kinase panel; format: biochemical; settings: read-out: % Control
# T37 construct: purchased Millipore KinaseProfiler (kinases); Cerep (receptors and ion channels)
# MLCK = biological target: T38, MLCK (Homo sapiens, UniProt Q9H1R3); assay: Millipore kinase panel; format: biochemical; settings: read-out: % Control
# T38 construct: purchased Millipore KinaseProfiler (kinases); Cerep (receptors and ion channels)
# μ (MOP) (h) = biological target: T39, μ (MOP) (h) (Homo sapiens, UniProt P35372); assay: CEREP binding panel; settings: agonist radioligand, read-out: % Inhibition of Control Specific Binding
# T39 construct: purchased Millipore KinaseProfiler (kinases); Cerep (receptors and ion channels)
# 5-HT1B = biological target: T40, 5-HT1B (Rattus norvegicus, UniProt P28564); assay: CEREP binding panel; settings: antagonist radioligand, read-out: % Inhibition of Control Specific Binding
# T40 construct: purchased Millipore KinaseProfiler (kinases); Cerep (receptors and ion channels)
# BRSK2 = biological target: T41, BRSK2 (Homo sapiens, UniProt Q8IWQ3); assay: Millipore kinase panel; format: biochemical; settings: read-out: % Control
# T41 construct: purchased Millipore KinaseProfiler (kinases); Cerep (receptors and ion channels)
# T34 sequence (P53667 whole entry): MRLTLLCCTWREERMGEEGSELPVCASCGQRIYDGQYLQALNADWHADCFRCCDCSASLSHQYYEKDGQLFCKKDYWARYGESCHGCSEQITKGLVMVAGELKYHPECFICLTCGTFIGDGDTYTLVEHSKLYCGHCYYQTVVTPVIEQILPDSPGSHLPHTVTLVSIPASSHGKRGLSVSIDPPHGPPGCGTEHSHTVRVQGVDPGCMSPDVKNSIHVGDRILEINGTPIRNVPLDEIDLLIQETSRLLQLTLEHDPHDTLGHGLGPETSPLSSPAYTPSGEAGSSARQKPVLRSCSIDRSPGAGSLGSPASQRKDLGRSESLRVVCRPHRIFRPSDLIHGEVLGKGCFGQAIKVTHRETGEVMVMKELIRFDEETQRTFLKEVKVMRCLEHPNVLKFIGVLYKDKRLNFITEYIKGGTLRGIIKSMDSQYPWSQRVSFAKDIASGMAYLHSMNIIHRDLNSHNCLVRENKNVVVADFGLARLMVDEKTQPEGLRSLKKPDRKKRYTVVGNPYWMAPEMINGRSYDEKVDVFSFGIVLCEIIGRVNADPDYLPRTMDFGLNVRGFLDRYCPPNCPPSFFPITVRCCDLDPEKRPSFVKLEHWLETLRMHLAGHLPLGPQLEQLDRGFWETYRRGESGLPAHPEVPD
# T36 sequence (O60285 whole entry): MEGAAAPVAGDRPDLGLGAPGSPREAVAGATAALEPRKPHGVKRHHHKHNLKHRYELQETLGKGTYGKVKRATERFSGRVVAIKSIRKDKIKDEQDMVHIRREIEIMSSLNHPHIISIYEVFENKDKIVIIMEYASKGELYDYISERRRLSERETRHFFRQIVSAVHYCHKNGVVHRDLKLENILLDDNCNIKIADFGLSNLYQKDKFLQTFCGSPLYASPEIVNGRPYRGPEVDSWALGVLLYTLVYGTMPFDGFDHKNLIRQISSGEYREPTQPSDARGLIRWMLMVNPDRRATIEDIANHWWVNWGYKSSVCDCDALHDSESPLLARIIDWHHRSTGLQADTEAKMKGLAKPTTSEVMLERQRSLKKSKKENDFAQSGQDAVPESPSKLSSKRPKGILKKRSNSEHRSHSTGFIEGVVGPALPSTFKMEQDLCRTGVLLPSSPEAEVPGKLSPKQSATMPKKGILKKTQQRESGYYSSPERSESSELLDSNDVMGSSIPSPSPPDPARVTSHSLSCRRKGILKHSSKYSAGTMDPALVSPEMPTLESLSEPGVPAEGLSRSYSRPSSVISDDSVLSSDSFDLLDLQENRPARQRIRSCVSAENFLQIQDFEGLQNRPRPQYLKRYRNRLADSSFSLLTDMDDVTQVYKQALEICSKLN
# T9 sequence (Q9UPE1 whole entry): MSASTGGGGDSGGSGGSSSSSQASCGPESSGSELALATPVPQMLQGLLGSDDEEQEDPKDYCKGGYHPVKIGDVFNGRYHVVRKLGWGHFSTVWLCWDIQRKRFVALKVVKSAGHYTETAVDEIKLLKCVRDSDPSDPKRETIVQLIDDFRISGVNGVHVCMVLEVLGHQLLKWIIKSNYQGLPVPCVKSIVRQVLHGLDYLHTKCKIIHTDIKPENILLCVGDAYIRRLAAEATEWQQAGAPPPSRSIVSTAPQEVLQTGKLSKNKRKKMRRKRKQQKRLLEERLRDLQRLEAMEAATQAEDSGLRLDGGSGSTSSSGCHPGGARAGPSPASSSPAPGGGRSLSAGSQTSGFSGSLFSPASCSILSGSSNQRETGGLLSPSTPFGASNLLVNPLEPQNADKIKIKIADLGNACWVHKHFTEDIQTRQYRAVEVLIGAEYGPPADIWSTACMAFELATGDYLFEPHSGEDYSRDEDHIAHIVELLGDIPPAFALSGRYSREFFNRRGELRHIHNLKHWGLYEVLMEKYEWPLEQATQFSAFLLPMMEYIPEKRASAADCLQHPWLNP
# T22 sequence (Q96SB4 whole entry): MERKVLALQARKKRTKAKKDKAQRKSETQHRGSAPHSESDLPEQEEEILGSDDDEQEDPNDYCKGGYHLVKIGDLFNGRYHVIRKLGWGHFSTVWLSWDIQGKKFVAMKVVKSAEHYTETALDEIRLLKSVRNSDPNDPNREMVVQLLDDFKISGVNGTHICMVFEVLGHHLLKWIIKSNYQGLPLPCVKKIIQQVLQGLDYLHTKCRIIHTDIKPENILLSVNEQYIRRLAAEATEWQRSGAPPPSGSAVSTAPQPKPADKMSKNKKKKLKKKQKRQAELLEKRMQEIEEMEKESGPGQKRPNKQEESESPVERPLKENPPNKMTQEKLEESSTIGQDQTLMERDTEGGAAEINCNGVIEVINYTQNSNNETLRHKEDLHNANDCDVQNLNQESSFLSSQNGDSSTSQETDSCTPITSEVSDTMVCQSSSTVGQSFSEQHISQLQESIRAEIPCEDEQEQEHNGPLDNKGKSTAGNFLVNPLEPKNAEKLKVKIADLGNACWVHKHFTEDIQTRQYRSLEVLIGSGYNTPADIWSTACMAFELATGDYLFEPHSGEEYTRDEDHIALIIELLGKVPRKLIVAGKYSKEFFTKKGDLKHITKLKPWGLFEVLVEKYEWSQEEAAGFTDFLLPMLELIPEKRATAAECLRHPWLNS
# T23 sequence (P32245 whole entry): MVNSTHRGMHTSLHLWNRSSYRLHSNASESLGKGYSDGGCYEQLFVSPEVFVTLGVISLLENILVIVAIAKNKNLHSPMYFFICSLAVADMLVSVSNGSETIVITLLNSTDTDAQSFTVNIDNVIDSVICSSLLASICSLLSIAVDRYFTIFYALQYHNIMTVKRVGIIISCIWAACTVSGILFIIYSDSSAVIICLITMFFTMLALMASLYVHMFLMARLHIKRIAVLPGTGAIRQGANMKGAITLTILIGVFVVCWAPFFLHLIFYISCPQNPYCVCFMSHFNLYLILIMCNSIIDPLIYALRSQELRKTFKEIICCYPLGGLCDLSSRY
# T39 sequence (P35372 whole entry): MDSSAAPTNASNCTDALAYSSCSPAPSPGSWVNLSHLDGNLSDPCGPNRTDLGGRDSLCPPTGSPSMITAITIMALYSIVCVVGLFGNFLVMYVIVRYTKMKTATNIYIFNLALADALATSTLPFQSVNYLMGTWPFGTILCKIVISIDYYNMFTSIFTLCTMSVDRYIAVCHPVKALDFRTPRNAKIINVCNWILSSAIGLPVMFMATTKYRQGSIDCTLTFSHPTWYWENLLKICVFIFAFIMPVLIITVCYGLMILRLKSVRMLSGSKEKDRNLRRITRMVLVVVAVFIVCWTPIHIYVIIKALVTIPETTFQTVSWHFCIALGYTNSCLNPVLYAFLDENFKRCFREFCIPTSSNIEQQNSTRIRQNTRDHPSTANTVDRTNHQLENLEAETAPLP
# T15 sequence (P57059 whole entry): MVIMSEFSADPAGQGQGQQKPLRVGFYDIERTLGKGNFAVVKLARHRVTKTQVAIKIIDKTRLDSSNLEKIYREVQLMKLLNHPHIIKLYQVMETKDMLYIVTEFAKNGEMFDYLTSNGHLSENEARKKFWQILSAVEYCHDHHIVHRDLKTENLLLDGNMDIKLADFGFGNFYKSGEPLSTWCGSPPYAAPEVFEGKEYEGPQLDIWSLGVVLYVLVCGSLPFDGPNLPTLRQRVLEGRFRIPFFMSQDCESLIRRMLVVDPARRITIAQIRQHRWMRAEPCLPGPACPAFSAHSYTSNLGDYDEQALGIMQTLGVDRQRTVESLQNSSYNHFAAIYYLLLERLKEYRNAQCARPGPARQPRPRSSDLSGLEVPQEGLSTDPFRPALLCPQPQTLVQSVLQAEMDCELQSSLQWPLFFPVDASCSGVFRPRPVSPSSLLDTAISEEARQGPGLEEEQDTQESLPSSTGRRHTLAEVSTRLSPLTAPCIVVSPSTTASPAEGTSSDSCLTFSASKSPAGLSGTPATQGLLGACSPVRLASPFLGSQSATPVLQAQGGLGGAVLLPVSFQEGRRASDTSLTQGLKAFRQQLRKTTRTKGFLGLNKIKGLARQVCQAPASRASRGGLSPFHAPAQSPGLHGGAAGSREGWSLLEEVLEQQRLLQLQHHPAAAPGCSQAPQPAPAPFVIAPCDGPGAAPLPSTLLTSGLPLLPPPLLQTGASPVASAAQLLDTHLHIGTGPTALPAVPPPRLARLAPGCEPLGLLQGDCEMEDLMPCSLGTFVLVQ
# T2 sequence (Q6PHR2 whole entry): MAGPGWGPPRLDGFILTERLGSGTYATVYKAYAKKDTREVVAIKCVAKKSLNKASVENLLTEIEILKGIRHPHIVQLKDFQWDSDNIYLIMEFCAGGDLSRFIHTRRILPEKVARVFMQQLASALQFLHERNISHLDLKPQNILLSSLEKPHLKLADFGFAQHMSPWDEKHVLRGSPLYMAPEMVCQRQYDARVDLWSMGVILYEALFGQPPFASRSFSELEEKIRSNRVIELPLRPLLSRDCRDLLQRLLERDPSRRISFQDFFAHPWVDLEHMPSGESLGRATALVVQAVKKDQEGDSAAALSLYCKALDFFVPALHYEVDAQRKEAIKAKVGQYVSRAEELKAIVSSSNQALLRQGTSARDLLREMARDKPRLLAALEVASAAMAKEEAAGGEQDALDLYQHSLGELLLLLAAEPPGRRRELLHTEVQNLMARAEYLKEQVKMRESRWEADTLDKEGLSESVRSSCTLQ
# T3 sequence (O15264 whole entry): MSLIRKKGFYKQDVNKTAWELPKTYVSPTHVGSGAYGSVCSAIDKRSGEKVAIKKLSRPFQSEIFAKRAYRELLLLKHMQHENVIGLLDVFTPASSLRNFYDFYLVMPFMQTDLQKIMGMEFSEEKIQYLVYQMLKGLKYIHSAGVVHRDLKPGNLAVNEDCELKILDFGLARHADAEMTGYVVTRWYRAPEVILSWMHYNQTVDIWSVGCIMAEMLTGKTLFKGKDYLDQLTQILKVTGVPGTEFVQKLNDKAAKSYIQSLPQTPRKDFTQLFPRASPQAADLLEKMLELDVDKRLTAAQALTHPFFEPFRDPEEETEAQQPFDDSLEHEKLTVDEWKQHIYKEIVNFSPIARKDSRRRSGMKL
structure (smiles),measurement,setting,value
"O=C1NCCC12CCN(c1c(Cl)cncc1-c1ccc(N3CCOCC3)cc1)CC2 [Compound 44, 8-(3-Chloro-5-(4-morpholin-4-ylphenyl)pyridin-4-yl)-2,8-diazaspiro[4.5]decan-1-one]",inhibition at 10 µM,M2 (h),24%
same,remaining activity at 1 µM,ULK3,-1%
same,remaining activity at 1 µM,SAPK4,-2%
same,remaining activity at 1 µM,FYN,10%
same,remaining activity at 1 µM,CRAF,-1%
same,% Inhibition of Control Specific Binding,SKCa channel,-6%
same,remaining activity at 1 µM,PAK4,-2%
same,remaining activity at 1 µM,RSK1,2%
same,remaining activity at 1 µM,MELK,-19%
same,remaining activity at 1 µM,MSSK1,-10%
same,remaining activity at 1 µM,DYRK2,9%
same,inhibition at 10 µM,M3 (h),47%
same,remaining activity at 1 µM,CHK1,-7%
same,% Inhibition of Control Specific Binding,α1 (non-selective),-4%
same,remaining activity at 1 µM,EPHA2,10%
same,remaining activity at 1 µM,JAK3,-4%
same,remaining activity at 1 µM,SIK,-3%
same,remaining activity at 1 µM,EPHA5,11%
same,inhibition at 10 µM,B2 (h),5%
same,remaining activity at 1 µM,CSK,-1%
same,remaining activity at 1 µM,CDK9/CYCLINT1,-24%
same,% Control,BLK,16%
same,inhibition at 10 µM,ETA (h),-3%
same,remaining activity at 1 µM,MRCKBETA,4%
same,% Inhibition of Control Specific Binding,Na+ channel (site 2),15%
same,remaining activity at 1 µM,SRPK1,-20%
same,inhibition at 10 µM,MC4 (h),10%
same,remaining activity at 1 µM,ZIPK,-10%
same,remaining activity at 1 µM,CLK3,0%
same,remaining activity at 1 µM,MAPKAP-K3,-3%
same,inhibition at 10 µM,NK3 (h),5%
same,remaining activity at 1 µM,PKCALPHA,-5%
same,remaining activity at 1 µM,EPHB3,17%
same,remaining activity at 1 µM,PRK2,17%
same,remaining activity at 1 µM,PASK,1%
same,remaining activity at 1 µM,RET,14%
same,remaining activity at 1 µM,NEK3,18%
same,remaining activity at 1 µM,LIMK1,-3%
same,remaining activity at 1 µM,DAPK1,0%
same,remaining activity at 1 µM,ARK5,-2%
same,remaining activity at 1 µM,DCAMKL2,0%
same,remaining activity at 1 µM,MLCK,1%
same,inhibition at 10 µM,μ (MOP) (h),9%
same,inhibition at 10 µM,5-HT1B,-29%
same,remaining activity at 1 µM,BRSK2,14%

# Reference: PMC4767141, “Discovery of Potent, Orally Bioavailable, Small-Molecule Inhibitors of WNT Signaling from a Cell-Based Pathway Screen” (Journal of Medicinal Chemistry, 2015)
